Several values for one entry are separate records, joined by “and”; a condition that tells them apart may be missing. Identical values can stand only once. Like-named read-outs stand apart in the source and are kept apart here.
What was measured:
Caco-2 cell suspension = settings: Caco-2, pH 7.4
VZV = assay: In vitro antiviral screening, CPE inhibition in HFF cells; assay type: cell-based, varicella zoster virus; settings: VZV, CPE Inhibition
hPEPT1 = target: T1, hPEPT1 (Homo sapiens, UniProt P46059); assay: [3H] Glycylsarcosine uptake and its inhibition in Caco-2 cells (affinity towards peptide transporter); assay type: cell-based
T1 construct: endogenous in cells; host or cells: Caco-2 (human colon carcinoma, ATCC)
T1 sequence (P46059 1-708): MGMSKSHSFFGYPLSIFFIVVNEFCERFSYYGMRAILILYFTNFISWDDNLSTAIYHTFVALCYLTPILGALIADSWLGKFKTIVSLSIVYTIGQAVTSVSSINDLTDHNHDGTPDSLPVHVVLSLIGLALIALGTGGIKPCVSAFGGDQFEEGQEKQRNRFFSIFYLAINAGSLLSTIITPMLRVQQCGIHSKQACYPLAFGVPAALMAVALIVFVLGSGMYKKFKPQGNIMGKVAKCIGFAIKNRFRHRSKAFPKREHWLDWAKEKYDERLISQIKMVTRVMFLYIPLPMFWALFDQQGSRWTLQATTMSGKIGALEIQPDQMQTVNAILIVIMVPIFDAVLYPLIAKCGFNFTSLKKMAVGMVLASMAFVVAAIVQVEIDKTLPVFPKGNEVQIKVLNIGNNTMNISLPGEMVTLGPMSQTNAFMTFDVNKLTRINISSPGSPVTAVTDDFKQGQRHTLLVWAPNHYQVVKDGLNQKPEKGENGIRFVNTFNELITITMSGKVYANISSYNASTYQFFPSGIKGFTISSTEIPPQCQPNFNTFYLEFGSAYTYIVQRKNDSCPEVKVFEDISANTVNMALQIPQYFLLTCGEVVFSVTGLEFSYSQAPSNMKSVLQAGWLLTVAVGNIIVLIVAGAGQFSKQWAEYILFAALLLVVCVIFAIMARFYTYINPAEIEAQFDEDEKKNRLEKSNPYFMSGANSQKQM

HSV-1 = assay: In vitro antiviral screening, CPE inhibition in HFF cells; assay type: cell-based, herpes simplex virus 1
HSV-2 = assay: as above; assay type: cell-based, herpes simplex virus 2; settings: for EC50: HSV-2, CPE Inhibition
[1] = test system: rabbit corneal cell line (SIRC); settings: SIRC cells
[2] = test system: oligopeptide transporter on the rabbit cornea
HCMV = assay: In vitro antiviral screening, CPE inhibition in HFF cells; assay type: cell-based, human cytomegalovirus; settings: for EC50: HCMV, CPE Inhibition
EBV = assay: In vitro antiviral screening, VCA Elisa; assay type: cell-based, epstein-barr virus; settings: for EC50: EBV, VCA Elisa

CC(C)[C@H](N)C(=O)OCCOCn1cnc2c(=O)[nH]c(N)nc21 [Val-ACV, L-Valine-acyclovir] was tested, and the “10^2 × kobs” value (Caco-2 cell suspension; human) was 0.56 ± 0.038 min^−1mg^−1 protein, the EC50 (VZV; Human alphaherpesvirus 3, HFF) was under 0.08 µM and the Ki (hPEPT1) was 1410 ± 560 µM. For the same compound, the “Vmax of Gly-Sar uptake in presence of the drug” value (hPEPT1) was 0.081 ± 0.09 µmol/min/mg, the EC50 (HSV-1; Human alphaherpesvirus 1, HFF, read-out: EC50 (concentration required to inhibit viral cytopathogenicity by 50%), HSV-1, CPE Inhibition) was 9.1 µM and the EC50 (HSV-1; Human alphaherpesvirus 1, HFF, HSV-1, running text, read-out: EC50 against HSV-1) was 9.1 µM. The “SI (Selectivity Index) = CC50/EC50” value (HSV-2) was “SI > 35.7”, the EC50 (HSV-2; Human alphaherpesvirus 2, HFF) was 7.77 µM and the “% viable cells” value ([1]; 5 mM) was 89.3±5.1%. The “Papp (% Control) of [3H] Val-ACV” value [2] was 20.1 (±6.7) % Control, the “SI (Selectivity Index) = CC50/EC50” value (HCMV) was “SI > 9” and the EC50 (HCMV; Human betaherpesvirus 5, HFF) was 30.8 µM. For the same compound, the “SI (Selectivity Index) = CC50/EC50” value (EBV) was “SI > 250” and the EC50 (EBV; human gammaherpesvirus 4) was 0.55 µM.
With CC(C)C(N)C(=O)NC(C(=O)OCCOCn1cnc2c(=O)[nH]c(N)nc21)C(C)C (stereo not drawn) [Val-Val-ACV, Val-Valacyclovir] the “10^2 × kobs” value (Caco-2 cell suspension) was 2.14 ± 0.44 min^−1mg^−1 protein, the t1/2 (Caco-2 cell suspension; human) was 33.2 ± 6.9 min and the EC50 (VZV) was 0.09 µM. The “Vmax of Gly-Sar uptake in presence of the drug” value (hPEPT1) was 0.099 ± 0.10 µmol/min/mg, the IC50 (hPEPT1; read-out: IC50 of inhibition of [3H] Gly-Sar uptake) was 3460 ± 210 µM and the Ki (hPEPT1; read-out: Ki) was 1940 µM and 1890 µM and 2510 µM. It also gave an EC50 (HSV-1; read-out: EC50 against HSV-1) of 6.14 µM, an EC50 (HSV-2) of 22.7 µM and a percent survival ([1]; 0.25 mM) of 86.3%. It also gave a percent survival ([1]; 0.5 mM) of 85.8%, a percent survival ([1]; 1 mM) of 87.0% and a percent survival ([1]; 2 mM) of 87.0%. For the same compound, the “% viable cells” value ([1]; 5 mM) was 90.1±4.6%, the percent survival ([1]; 5 mM) was 99.3% and the percent survival ([1]; 10 mM) was 54.03%. For the same compound, the “Papp (% Control) of [3H] Val-ACV” value [2] was 18.6 (±8.9) % Control, the EC50 (HCMV) was over 186 µM and the EC50 (EBV) was 93.1 µM.

Reference: patent US20090149482A1, “STEREOCHEMICALLY DEFINED DIPEPTIDE ESTERS OF ANTIVIRAL AGENTS FOR ENHANCED OCULAR TREATMENT” (priority 2001, published 2009)
